# Results: patent US20100129805A1, “SLC1A1 ANTIPSYCHOTIC DRUG RESPONSE MARKERS” (priority 2006, published 2010)
# Tested on: patients with DSM-III-R or DSM-IV diagnoses of SCZ refractory or intolerant to conventional antipsychotics
# Assay: Clozapine response after 6 months treatment (% score change on BPRS, BPOS, BNEG) by SLC1A1 genotype/haplotype
# Type: in vivo, human
# Conditions: 6 months clozapine
# Source text: Effect of 5 Single Nucleotide Polymorphisms (SNPs) Across the SLC1A1 Gene on Clozapine (CZ) Response After 6 Months Treatment in Two Distinct Schizophrenic Populations (Caucasian and African-American) Refractory or Intolerant to Conventional Antipsychotics.
# 97 patients (73 Caucasians and 24 African-Americans) with DSM-III-R or DSM-IV diagnoses of SCZ assessed from Case Western Reserve University, Cleveland, Ohio.
# No significant differences were observed between Caucasians and African-Americans in terms of gender ratio (P=0.234) or mean age (P=0.561). Almost all subjects met criteria for treatment refractoriness or intolerance to typical antipsychotic therapy as defined by Kane et al (1988). Patients underwent a washout period of 2 to 4 weeks during which, unless clinically necessary, they received no medications before starting clozapine (CZ). CZ treatment was continued for a minimum of 6 months during which patients were evaluated prospectively. CZ blood levels were monitored throughout course of treatment to ascertain compliance,
# Treatment response is evaluated as a percentage (%) score change from baseline using the 18-item Brief Psychiatric Rating Scale (BPRS), a 4-item positive symptom subscale (BPOS) and 3-item negative symptom subscale (BNEG)—after 6 months of clozapine treatment. % score change=(6 months score−baseline score)/Baseline score. A negative value of % score change in each scale would indicate an improvement in symptoms measured by that particular scale.
# Blood samples were collected from clinical sites and sent to the Centre for Addiction and Mental Health (CAMH) in Toronto, ON, Canada—where genotyping of patients' DNA was performed by 5′-exonuclease fluorescence assays. The 5 informative SNPs (minor allele frequency>20%) spanning SLC1A1 were chosen based on location (see Table 1)—with 2 in coding regions and 3 from different intronic regions and different haplotype blocks. Laboratory staff was blind to the psychiatric ratings.
# Within each ethnic population, individual SNP analyses of % score changes (continuous data) were performed using Analysis of Variance (ANOVA) in STATA ver7.0. Haplotype analysis of unphased quantitative data was performed using QTPHASE (Dudbridge, 2003).
structure (smiles),measurement,setting,value
CN1CCN(C2=Nc3cc(Cl)ccc3Nc3ccccc32)CC1 [clozapine],Mean BPOS % score change,"haplotype 1-1-1 in SNP window 1-2-3, Caucasians and African-Americans combined",−0.198
same,Mean BNEG % score change,"haplotype 1-1 in SNP window 4-5, African-Americans",−0.379
same,Mean BNEG % score change,"haplotype 1-2-1 in SNP window 3-4-5, African-Americans",0.086
same,Mean BNEG % score change,"haplotype 1-2 in SNP window 3-4, African-Americans",0.143
same,Mean BNEG % score change,"haplotype 2-1-1 in SNP window 2-3-4, Caucasians",0.295
same,Mean BNEG % score change,"haplotype 2-1-1 in SNP window 3-4-5, African-Americans",−0.379
same,Mean BNEG % score change,"haplotype 2-1 in SNP window 3-4, African-Americans",−0.341
same,Mean BNEG % score change,"haplotype 2-1 in SNP window 4-5, African-Americans",0.107
same,Mean BNEG % score change,"haplotype 2-2-1 in SNP window 1-2-3, Caucasians and African-Americans combined",0.592
same,Mean BNEG % score change,"haplotype 2-2-1 in SNP window 1-2-3, Caucasians",0.889
same,Mean BNEG % score change,"rs301434 genotype C/C, Caucasians & African-Americans combined",−0.115
same,Mean BPRS % score change,"rs301434 genotype C/C, Caucasians, negative = improvement",−0.248
same,Mean BNEG % score change,"rs301434 genotype T/C, Caucasians & African-Americans combined",−0.136
same,Mean BPRS % score change,"rs301434 genotype T/C, Caucasians, negative = improvement",−0.310
same,Mean BNEG % score change,"rs301434 genotype T/T, Caucasians & African-Americans combined",0.636
same,Mean BPRS % score change,"rs301434 genotype T/T, Caucasians, negative = improvement",1.310
same,Mean BNEG % score change,"rs1980943 genotype A/A, African-Americans, negative = improvement",3.000
same,Mean BNEG % score change,"rs1980943 genotype G/A, African-Americans, negative = improvement",−0.378
same,Mean BNEG % score change,"rs1980943 genotype G/G, African-Americans, (6 months score-baseline score)/baseline score, negative = improvement",0.067
